How the values were obtained:
Experiment in all cases: cells
Assay type in all cases: functional, cell-based, Homo sapiens
SCC-15 = conditions: Homo sapiens, SCC-15;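 also: growth inhibition of SCC-15 cells, read out with a cell viability assay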
Description: SANGER: Inhibition of human SCC-15 cell growth in a cell viability assay.

SF-126 = conditions: Homo sapiens, SF-126;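 also: growth inhibition of human SF126 cells, read out with a cell viability assay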
Description: SANGER: Inhibition of human SF126 cell growth in a cell viability assay.

DSH1 = conditions: Homo sapiens, DSH1;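 also: growth inhibition of human DSH1 cells, measured with a cell viability readout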
Description: SANGER: Inhibition of human DSH1 cell growth in a cell viability assay.

KNS-81-FD = conditions: Homo sapiens, KNS-81-FD;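 also: growth inhibition of KNS-81-FD cells, read out with a cell viability assay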
Description: SANGER: Inhibition of human KNS-81-FD cell growth in a cell viability assay.

U-266 = conditions: Homo sapiens, U-266
Description: SANGER: Inhibition of human U-266 cell growth in a cell viability assay.

EOL1 = conditions: Homo sapiens, EOL1;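 also: growth inhibition of EoL-1 cells, read out by a cell viability assay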
Description: SANGER: Inhibition of human EoL-1-cell cell growth in a cell viability assay.

GB-1 = conditions: Homo sapiens, GB-1;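 also: growth of GB-1 cells judged by a viability assay, IC50 marks the concentration inhibiting growth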
Description: SANGER: Inhibition of human GB-1 cell growth in a cell viability assay.

NKM-1 = conditions: Homo sapiens, NKM-1;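 also: growth inhibition of NKM-1 cells, read out with a cell viability assay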
Description: SANGER: Inhibition of human NKM-1 cell growth in a cell viability assay.

KLE = conditions: Homo sapiens, KLE;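 also: growth inhibition of human KLE cells, read out with a cell viability assay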
Description: SANGER: Inhibition of human KLE cell growth in a cell viability assay.

NCI-H510A = conditions: Homo sapiens, NCI-H510A;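 also: growth inhibition of NCI-H510A cells, read out with a cell viability assay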
Description: SANGER: Inhibition of human NCI-H510A cell growth in a cell viability assay.

EW-18 = conditions: Homo sapiens, EW-18;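 also: growth inhibition of EW-18 cells, read out by a cell viability assay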
Description: SANGER: Inhibition of human EW-18 cell growth in a cell viability assay.

ES1 = conditions: Homo sapiens, ES1;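 also: growth inhibition of ES1 cells, read out with a cell viability assay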
Description: SANGER: Inhibition of human ES1 cell growth in a cell viability assay.

TGBC1TKB = conditions: Homo sapiens, TGBC1TKB;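 also: growth inhibition of TGBC1TKB cells, read out by a cell viability assay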
Description: SANGER: Inhibition of human TGBC1TKB cell growth in a cell viability assay.

MHH-NB-11 = conditions: Homo sapiens, MHH-NB-11;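 also: growth inhibition of human MHH-NB-11 cells, read out by a cell viability assay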
Description: SANGER: Inhibition of human MHH-NB-11 cell growth in a cell viability assay.

LB1047-RCC = conditions: Homo sapiens, LB1047-RCC;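 also: inhibition of cell growth, determined with a cell viability assay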
Description: SANGER: Inhibition of human LB1047-RCC cell growth in a cell viability assay.

COLO-684 = conditions: Homo sapiens, COLO-684
Description: SANGER: Inhibition of human COLO-684 cell growth in a cell viability assay.

LAN-6 = conditions: Homo sapiens, LAN-6;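 also: growth inhibition of LAN-6 cells, determined with a cell viability assay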
Description: SANGER: Inhibition of human LAN-6 cell growth in a cell viability assay.

CCRF-CEM = conditions: Homo sapiens, CCRF-CEM;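 also: inhibition of CCRF-CEM cell growth, measured by a cell viability assay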
Description: SANGER: Inhibition of human CCRF-CEM cell growth in a cell viability assay.

TE-12 = conditions: Homo sapiens, TE-12;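 also: growth inhibition of TE-12 cells, read out by a cell viability assay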
Description: SANGER: Inhibition of human TE-12 cell growth in a cell viability assay.

LXF-289 cell line = conditions: Homo sapiens, LXF-289
Description: SANGER: Inhibition of human LXF-289 cell growth in a cell viability assay.

SW872 = conditions: Homo sapiens, SW872;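 also: growth inhibition of SW872 cells, read out by a viability assay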
Description: SANGER: Inhibition of human SW872 cell growth in a cell viability assay.

TE-8 = conditions: Homo sapiens, TE-8;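 also: growth inhibition of TE-8 cells, measured with a cell viability readout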
Description: SANGER: Inhibition of human TE-8 cell growth in a cell viability assay.

ES7 = conditions: Homo sapiens, ES7;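 also: growth inhibition of cultured human ES7 cells, read out as cell viability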
Description: SANGER: Inhibition of human ES7 cell growth in a cell viability assay.

A253 cell line = conditions: Homo sapiens, A253;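 also: growth inhibition of A253 cells, read out with a cell viability assay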
Description: SANGER: Inhibition of human A253 cell growth in a cell viability assay.

NCI-H1648 = conditions: Homo sapiens, NCI-H1648;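 also: cell viability assay measuring inhibition of NCI-H1648 cell growth, from the Sanger screening data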
Description: SANGER: Inhibition of human NCI-H1648 cell growth in a cell viability assay.

LS-123 = conditions: Homo sapiens, LS-123
Description: SANGER: Inhibition of human LS-123 cell growth in a cell viability assay.

NB69 = conditions: Homo sapiens, NB69;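 also: growth inhibition of NB69 cells, determined by a cell viability assay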
Description: SANGER: Inhibition of human NB69 cell growth in a cell viability assay.

SK-UT-1 = conditions: Homo sapiens, SK-UT-1;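 also: growth inhibition of SK-UT-1 cells, measured by a cell viability assay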
Description: SANGER: Inhibition of human SK-UT-1 cell growth in a cell viability assay.

RPMI-8866 = conditions: Homo sapiens, RPMI-8866
Description: SANGER: Inhibition of human RPMI-8866 cell growth in a cell viability assay.

ML-2 = conditions: Homo sapiens, ML-2;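 also: growth inhibition of ML-2 cells, measured with a cell viability readout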
Description: SANGER: Inhibition of human ML-2 cell growth in a cell viability assay.

CP66-MEL = conditions: Homo sapiens, CP66-MEL;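 also: growth inhibition of CP66-MEL cells determined in a cell viability assay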
Description: SANGER: Inhibition of human CP66-MEL cell growth in a cell viability assay.

697 = conditions: Homo sapiens
Description: SANGER: Inhibition of human 697 cell growth in a cell viability assay.

MHH-PREB-1 = conditions: Homo sapiens, MHH-PREB-1;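 also: cell viability assay measuring inhibition of proliferation of human MHH-PREB-1 cells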
Description: SANGER: Inhibition of human MHH-PREB-1 cell growth in a cell viability assay.

COLO-800 = conditions: Homo sapiens, COLO-800;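 also: growth inhibition of COLO-800 cells, read out with a cell viability assay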
Description: SANGER: Inhibition of human COLO-800 cell growth in a cell viability assay.

CTV-1 = conditions: Homo sapiens, CTV-1;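 also: growth inhibition of the cell line, read out with a cell viability assay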
Description: SANGER: Inhibition of human CTV-1 cell growth in a cell viability assay.

COLO-668 = conditions: Homo sapiens, COLO-668
Description: SANGER: Inhibition of human COLO-668 cell growth in a cell viability assay.

SW982 = conditions: Homo sapiens, SW982;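 also: growth inhibition of SW982 cells, read out with a cell viability assay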
Description: SANGER: Inhibition of human SW982 cell growth in a cell viability assay.

GT3TKB = conditions: Homo sapiens, GT3TKB;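 also: growth inhibition of the cell line, read out with a cell viability assay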
Description: SANGER: Inhibition of human GT3TKB cell growth in a cell viability assay.

EC-GI-10 = conditions: Homo sapiens, EC-GI-10
Description: SANGER: Inhibition of human EC-GI-10 cell growth in a cell viability assay.

no-11 = conditions: Homo sapiens;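 also: growth inhibition of human NO-11 cells, read out with a cell viability assay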
Description: SANGER: Inhibition of human no-11 cell growth in a cell viability assay.

VA-ES-BJ = conditions: Homo sapiens, VA-ES-BJ;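 also: growth inhibition of the VA-ES-BJ cell line, read out by a cell viability assay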
Description: SANGER: Inhibition of human VA-ES-BJ cell growth in a cell viability assay.

KMOE-2 = conditions: Homo sapiens, KMOE-2;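 also: growth inhibition of human KMOE-2 cells, read out with a cell viability assay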
Description: SANGER: Inhibition of human KMOE-2 cell growth in a cell viability assay.

BB49-HNC = conditions: Homo sapiens, BB49-HNC;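 also: cell viability assay read-out, reported as inhibition of BB49-HNC cell growth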
Description: SANGER: Inhibition of human BB49-HNC cell growth in a cell viability assay.

ONS-76 = conditions: Homo sapiens, ONS-76;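 also: growth inhibition of human ONS-76 cells, read out with a cell viability assay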
Description: SANGER: Inhibition of human ONS-76 cell growth in a cell viability assay.

TGBC24TKB = conditions: Homo sapiens, TGBC24TKB;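 also: growth inhibition of human TGBC24TKB cells, read out with a cell viability assay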
Description: SANGER: Inhibition of human TGBC24TKB cell growth in a cell viability assay.

HDLM-2 = conditions: Homo sapiens, HDLM-2;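 also: cell viability assay measuring suppression of HDLM-2 proliferation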
Description: SANGER: Inhibition of human HDLM-2 cell growth in a cell viability assay.

SNU1 = conditions: Homo sapiens, SNU1;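 also: growth inhibition of human NCI-SNU-1 cells, measured with a cell viability assay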
Description: SANGER: Inhibition of human NCI-SNU-1 cell growth in a cell viability assay.

SNB-75 = conditions: Homo sapiens, SNB-75;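 also: cell viability assay measuring growth inhibition of human SNB-75 cells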
Description: SANGER: Inhibition of human SNB75 cell growth in a cell viability assay.

COLO-829 = conditions: Homo sapiens, COLO-829
Description: SANGER: Inhibition of human COLO-829 cell growth in a cell viability assay.

O=C(O)c1ccc(-c2c[nH]c3ncc(-c4ccccc4)cc23)cc1C1CCCC1 [GSK-650394] showed an IC50 (SCC-15) greater than 16000 nM, an IC50 (SF-126) of 8800 nM and an IC50 (DSH1) greater than 16000 nM. It also gave an IC50 (KNS-81-FD) greater than 16000 nM, an IC50 (U-266) greater than 16000 nM and an IC50 (EOL1) of 11300 nM. For the same compound, the IC50 (GB-1) was 5960 nM, the IC50 (NKM-1) was 2770 nM and the IC50 (KLE) was greater than 16000 nM. For the same compound, the IC50 (NCI-H510A) was greater than 16000 nM, the IC50 (EW-18) was greater than 16000 nM and the IC50 (ES1) was greater than 16000 nM. It also gave an IC50 (TGBC1TKB) greater than 16000 nM, an IC50 (MHH-NB-11) greater than 16000 nM and an IC50 (LB1047-RCC) of 6200 nM. For the same compound, the IC50 (COLO-684) was greater than 16000 nM, the IC50 (LAN-6) was greater than 16000 nM and the IC50 (CCRF-CEM) was greater than 16000 nM. For the same compound, the IC50 (TE-12) was 1990 nM, the IC50 (LXF-289 cell line) was 1400 nM and the IC50 (SW872) was 13700 nM. For the same compound, the IC50 (TE-8) was 4120 nM, the IC50 (ES7) was greater than 16000 nM and the IC50 (A253 cell line) was greater than 16000 nM. It also gave an IC50 (NCI-H1648) greater than 16000 nM, an IC50 (LS-123) greater than 16000 nM and an IC50 (NB69) greater than 16000 nM. For the same compound, the IC50 (SK-UT-1) was 11800 nM, the IC50 (RPMI-8866) was greater than 16000 nM and the IC50 (ML-2) was greater than 16000 nM. It also gave an IC50 (CP66-MEL) greater than 16000 nM, an IC50 697 greater than 16000 nM and an IC50 (MHH-PREB-1) greater than 16000 nM. It also gave an IC50 (COLO-800) greater than 16000 nM, an IC50 (CTV-1) greater than 16000 nM and an IC50 (COLO-668) greater than 16000 nM. It also gave an IC50 (SW982) of 13800 nM, an IC50 (GT3TKB) greater than 16000 nM and an IC50 (EC-GI-10) greater than 16000 nM. The IC50 (no-11) was greater than 16000 nM, the IC50 (VA-ES-BJ) was 9040 nM and the IC50 (KMOE-2) was greater than 16000 nM. For the same compound, the IC50 (BB49-HNC) was greater than 16000 nM, the IC50 (ONS-76) was 4140 nM and the IC50 (TGBC24TKB) was greater than 16000 nM. It also gave an IC50 (HDLM-2) greater than 16000 nM, an IC50 (SNU1) greater than 16000 nM and an IC50 (SNB-75) greater than 16000 nM. It also gave an IC50 (COLO-829) greater than 16000 nM.
With CC(=O)O[C@H]1C(=O)[C@@]2(C)[C@H]([C@H](OC(=O)c3ccccc3)[C@]3(O)C[C@H](OC(=O)[C@H](O)[C@@H](NC(=O)c4ccccc4)c4ccccc4)C(C)=C1C3(C)C)[C@]1(OC(C)=O)CO[C@@H]1C[C@@H]2O [PACLITAXEL] the IC50 (SCC-15) was greater than 102 nM, the IC50 (SF-126) was 61.3 nM and the IC50 (DSH1) was greater than 102 nM. For the same compound, the IC50 (KNS-81-FD) was greater than 102 nM, the IC50 (U-266) was greater than 102 nM and the IC50 (EOL1) was 26.9 nM. The IC50 (GB-1) was 36 nM, the IC50 (NKM-1) was greater than 102 nM and the IC50 (KLE) was greater than 102 nM. For the same compound, the IC50 (NCI-H510A) was 6.65 nM, the IC50 (EW-18) was greater than 102 nM and the IC50 (ES1) was 12.9 nM. The IC50 (TGBC1TKB) was 17.5 nM, the IC50 (MHH-NB-11) was greater than 102 nM and the IC50 (LB1047-RCC) was 25.1 nM. For the same compound, the IC50 (COLO-684) was 29.1 nM, the IC50 (LAN-6) was greater than 102 nM and the IC50 (CCRF-CEM) was 8.71 nM. It also gave an IC50 (TE-12) of 33.1 nM, an IC50 (LXF-289 cell line) of 8.18 nM and an IC50 (SW872) of 42.1 nM. The IC50 (TE-8) was 1.17 nM, the IC50 (ES7) was greater than 102 nM and the IC50 (A253 cell line) was 17.4 nM. It also gave an IC50 (NCI-H1648) of 4.69 nM, an IC50 (LS-123) of 16.6 nM and an IC50 (NB69) greater than 102 nM. It also gave an IC50 (SK-UT-1) of 4.8 nM, an IC50 (RPMI-8866) of 57.1 nM and an IC50 (ML-2) of 20.5 nM. It also gave an IC50 (CP66-MEL) greater than 102 nM, an IC50 697 of 1.5 nM and an IC50 (MHH-PREB-1) of 21.9 nM. The IC50 (COLO-800) was greater than 102 nM, the IC50 (CTV-1) was 14.8 nM and the IC50 (COLO-668) was greater than 102 nM. It also gave an IC50 (SW982) of 7.66 nM, an IC50 (GT3TKB) of 4.34 nM and an IC50 (EC-GI-10) of 72.6 nM. The IC50 (no-11) was 34.8 nM, the IC50 (VA-ES-BJ) was 3 nM and the IC50 (KMOE-2) was greater than 102 nM. It also gave an IC50 (BB49-HNC) greater than 102 nM, an IC50 (ONS-76) of 20.4 nM and an IC50 (TGBC24TKB) of 7.52 nM. It also gave an IC50 (HDLM-2) of 43.9 nM, an IC50 (SNU1) greater than 102 nM and an IC50 (SNB-75) of 15.4 nM. The IC50 (COLO-829) was greater than 102 nM.

Reference: ChEMBL document CHEMBL1201861, “Genomics of Drug Sensitity in Cancer screening data, Wellcome Trust Sanger Institute”
